Counter-ions that a name gives are not always drawn. Like-named read-outs stand apart in the source and are kept apart here.
Legend:
[1] = system: complement system; conditions: in words; literature; cited from earlier work
[2] = molecular target: T1, activated human C1 (Homo sapiens, UniProt P09871); assay: Test, Code 026 (C1 inhibitor); format: biochemical; conditions: higher well number indicates higher activity
T1 construct: test of C2 destruction in presence of C4
Excerpt: (§1) An active inhibitor protects C2 from C1 and C4; (ii) Test, Code 035 (C3-C9 inhibitor)--This test determines the ability of the late components of human complement (C3-C9) to lyse EAC 142 in the presence of appropriate dilutions of the test compound. An active inhibitor protects EAC 142 from lysis by human C3-C9; (iii) Test, Code 036 (C-Shunt inhibitor)--In this test human erythrocytes rendered fragile are lysed in autologous serum via the shunt pathway activated by cobra venom factor in the presence of appropriate dilutions of the test compound. Inhibition of the shunt pathway results in failure of lysis; (iv) Forssman Vasculitis Test--Here, the well known complement dependent lesion, Forssman vasculitis, is produced in guinea pigs by intradermal injection of rabbit anti-Forssman antiserum. The lesion is measured in terms of diameter, edema and hemorrhage and the extent to which a combined index of these is inhibited by prior intraperitoneal injection of the test compound at 200 mg/kg is then reported, unless otherwise stated; (v) Forssman Shock Test--Lethan shock is produced in guinea pigs by an i.v. injection of anti-Forssman antiserum and the harmonic mean death time of treated guinea pigs is compared with that of simultaneous controls; (vi) Complement Level Reduction Test--In this test, the above dosed guinea pigs, or others, are bled for serum and the complement level is determined in undiluted serum by the capillary tube method of U.S. Pat. No. 3,876,376 and compared to undosed control guinea pigs; and (vii) Cap 50 Test--Here, appropriate amounts of the test compound are added to a pool of guinea pig serum in vitro, after which the undiluted serum capillary tube assay referred to above is run. The concentration of compound inhibiting 50% is reported.
(§2) *Code designation for tests employed as referred herein.
(§3) **Activity in wells a serial dilution assay. Higher well number indicates
(§4) higher activity. The serial dilutions are twofold.

[3] = system: late components of human complement (C3-C9); assay: Test, Code 035 (C3-C9 inhibitor); format: cell-based; conditions: higher well number indicates higher activity
Excerpt: as §1, §2, §3, §4

[4] = system: shunt pathway activated by cobra venom factor; assay: Test, Code 036 (C-Shunt inhibitor); format: cell-based, human; conditions: higher well number indicates higher activity
Excerpt: as §1, §2, §3, §4

[5] = system: whole complement; assay: In vivo activity, complement level reduction in serum of dosed guinea pigs (capillary tube assay); design: species or system guinea pig
[6] = system: total hemolytic complement activity; conditions: human serum, in vitro; in words; cited from earlier work
[7] = system: total hemolytic complement activity; conditions: human serum; in words; cited from earlier work
[8] = in words; literature; cited from earlier work
[9] = Table II (intermediates), twofold serial dilution
[10] = Table II, intraperitoneal, time 30 min.
[11] = Table II, intraperitoneal, time 60 min.
[12] = Table II, intraperitoneal, time 120 min.
[13] = Table II, intravenous, time 2 min.
[14] = Table II, intravenous, time 30 min.
[15] = Table II, intravenous, time 120 min.
[16] = Table I, activity in wells, twofold serial dilution assay

T1 sequence (P09871 16-688): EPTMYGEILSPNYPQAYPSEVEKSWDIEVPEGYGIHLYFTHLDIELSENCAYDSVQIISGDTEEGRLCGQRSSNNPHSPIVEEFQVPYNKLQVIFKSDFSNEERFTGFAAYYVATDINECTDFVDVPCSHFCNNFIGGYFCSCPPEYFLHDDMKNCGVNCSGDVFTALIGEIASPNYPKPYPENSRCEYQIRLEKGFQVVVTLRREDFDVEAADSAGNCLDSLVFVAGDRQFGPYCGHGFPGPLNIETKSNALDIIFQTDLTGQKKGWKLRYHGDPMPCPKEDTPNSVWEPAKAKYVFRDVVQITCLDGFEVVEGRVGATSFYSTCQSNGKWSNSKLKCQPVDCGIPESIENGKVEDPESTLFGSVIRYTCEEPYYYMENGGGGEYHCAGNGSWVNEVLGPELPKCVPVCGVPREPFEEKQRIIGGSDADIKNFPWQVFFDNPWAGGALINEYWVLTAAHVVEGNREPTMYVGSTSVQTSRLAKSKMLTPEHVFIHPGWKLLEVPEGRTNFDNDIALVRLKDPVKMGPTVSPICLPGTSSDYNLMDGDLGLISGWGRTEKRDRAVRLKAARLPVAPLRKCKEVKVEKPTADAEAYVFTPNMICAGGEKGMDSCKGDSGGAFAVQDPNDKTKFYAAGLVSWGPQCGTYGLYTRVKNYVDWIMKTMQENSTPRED
T1 sequence (P00736 18-705 partner): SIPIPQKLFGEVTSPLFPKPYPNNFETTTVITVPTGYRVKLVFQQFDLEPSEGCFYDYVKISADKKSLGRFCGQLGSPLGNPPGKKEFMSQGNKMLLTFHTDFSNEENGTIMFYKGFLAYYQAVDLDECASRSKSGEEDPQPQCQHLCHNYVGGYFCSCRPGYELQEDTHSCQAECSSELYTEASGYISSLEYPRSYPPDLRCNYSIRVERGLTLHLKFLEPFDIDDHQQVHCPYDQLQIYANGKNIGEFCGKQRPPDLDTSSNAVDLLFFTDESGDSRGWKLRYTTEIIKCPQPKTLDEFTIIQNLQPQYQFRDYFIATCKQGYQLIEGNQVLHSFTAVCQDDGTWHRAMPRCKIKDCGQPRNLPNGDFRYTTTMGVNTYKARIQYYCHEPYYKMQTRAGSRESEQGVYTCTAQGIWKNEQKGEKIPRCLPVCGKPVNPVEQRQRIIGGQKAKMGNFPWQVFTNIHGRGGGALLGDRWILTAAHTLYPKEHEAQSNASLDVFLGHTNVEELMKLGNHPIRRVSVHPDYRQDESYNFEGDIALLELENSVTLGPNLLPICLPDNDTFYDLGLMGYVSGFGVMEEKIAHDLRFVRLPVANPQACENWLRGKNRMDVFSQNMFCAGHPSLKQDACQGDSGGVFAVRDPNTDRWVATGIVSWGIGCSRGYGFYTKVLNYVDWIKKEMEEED
T1 sequence (P02745 23-245 partner): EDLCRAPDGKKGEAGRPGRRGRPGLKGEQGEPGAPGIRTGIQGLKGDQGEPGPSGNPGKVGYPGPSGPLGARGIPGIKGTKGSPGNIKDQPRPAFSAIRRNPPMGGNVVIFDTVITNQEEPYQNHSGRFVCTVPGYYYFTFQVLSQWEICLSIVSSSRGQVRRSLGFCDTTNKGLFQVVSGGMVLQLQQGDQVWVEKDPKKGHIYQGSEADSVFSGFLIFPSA
T1 sequence (P02746 28-253 partner): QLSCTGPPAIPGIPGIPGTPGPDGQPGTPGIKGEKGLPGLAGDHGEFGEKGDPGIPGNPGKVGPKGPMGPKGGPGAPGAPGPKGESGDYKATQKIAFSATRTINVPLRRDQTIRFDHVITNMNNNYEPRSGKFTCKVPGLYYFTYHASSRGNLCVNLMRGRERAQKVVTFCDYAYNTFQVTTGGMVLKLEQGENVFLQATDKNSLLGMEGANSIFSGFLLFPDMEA
T1 sequence (P02747 29-245 partner): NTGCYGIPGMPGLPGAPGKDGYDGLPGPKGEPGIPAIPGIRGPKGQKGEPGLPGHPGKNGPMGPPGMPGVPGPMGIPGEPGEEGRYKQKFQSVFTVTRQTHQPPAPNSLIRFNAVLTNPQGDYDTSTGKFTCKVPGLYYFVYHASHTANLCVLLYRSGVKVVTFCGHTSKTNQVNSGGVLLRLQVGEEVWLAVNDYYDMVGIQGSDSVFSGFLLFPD

Cc1ccc(C(=O)Nc2ccc(S(=O)(=O)O)c3cc(S(=O)(=O)O)cc(S(=O)(=O)O)c23)cc1NC(=O)c1cccc(NC(=O)Nc2cccc(C(=O)Nc3cc(C(=O)Nc4ccc(S(=O)(=O)O)c5cc(S(=O)(=O)O)cc(S(=O)(=O)O)c45)ccc3C)c2)c1 [Suramin]
anticomplementary effect / complement inhibition [1]: competitive inhibitor of the complement system

Nc1ccc(C(=O)Nc2cc(C(=O)Nc3cc(S(=O)(=O)O)cc4cc(S(=O)(=O)O)cc(S(=O)(=O)O)c34)cc(C(=O)Nc3cc(S(=O)(=O)O)cc4cc(S(=O)(=O)O)cc(S(=O)(=O)O)c34)c2)c(S(=O)(=O)O)c1 [8,8'-[5-(4-Amino-2-sulfobenzamido)-1,3-phenylenedicarbonylimino]di-1,3,6-naphthalenetrisulfonic acid heptasodium salt]
Cl 026 Wells [2, 9]: +6 Wells | C-Late 035 Wells [3, 9]: +3 Wells | Shunt Inhibition 036 Wells [4, 9]: +2 Wells | In Vivo Activity (Guinea Pig) % Inhibition [5, 10]: -45% | In Vivo Activity (Guinea Pig) % Inhibition [5, 11]: -61% | In Vivo Activity (Guinea Pig) % Inhibition [5, 12]: -73% | In Vivo Activity (Guinea Pig) % Inhibition [5, 13]: -98% | In Vivo Activity (Guinea Pig) % Inhibition [5, 14]: -79% | In Vivo Activity (Guinea Pig) % Inhibition [5, 15]: -45%

pentosanpoly-sulfoester
anticomplementary activity (reduction in total hemolytic complement activity) [6]: anticomplementary activity on human serum both in vitro and in vivo | anticomplementary activity (reduction in total hemolytic complement activity) [7]: anticomplementary activity on human serum both in vitro and in vivo

O=C(Nc1cc(S(=O)(=O)O)cc2cc(S(=O)(=O)O)cc(S(=O)(=O)O)c12)c1cc(NC(=O)c2ccc([N+](=O)[O-])cc2S(=O)(=O)O)cc(C(=O)Nc2cc(S(=O)(=O)O)cc3cc(S(=O)(=O)O)cc(S(=O)(=O)O)c23)c1 [8,8'-[5-(4-Nitro-2-sulfobenzamido)-1,3-phenylenedicarbonylimino]di-1,3,6-naphthalenetrisulfonic acid heptasodium salt]
Cl 026 Wells [2, 9]: +4 Wells | C-Late 035 Wells [3, 9]: +2 Wells | Shunt Inhibition 036 Wells [4, 9]: +1 Wells | In Vivo Activity (Guinea Pig) % Inhibition [5, 10]: -40% | In Vivo Activity (Guinea Pig) % Inhibition [5, 11]: -55% | In Vivo Activity (Guinea Pig) % Inhibition [5, 12]: -74% | In Vivo Activity (Guinea Pig) % Inhibition [5, 13]: -91% | In Vivo Activity (Guinea Pig) % Inhibition [5, 14]: -59% | In Vivo Activity (Guinea Pig) % Inhibition [5, 15]: -51%

heparin
anticomplementary effect / complement inhibition [1]: anticomplementary effect

Nc1ccc2cc(S(=O)(=O)O)cc(O)c2c1N=Nc1ccc(NC(=O)Nc2ccc(N=Nc3c(N)ccc4cc(S(=O)(=O)O)cc(O)c34)c(S(=O)(=O)O)c2)cc1S(=O)(=O)O [chlorazol fast pink, 3,3'-ureylenebis-[6-(2-amino-8-hydroxy-6-sulfo-1-naphthylazo)]benzenesulfonic acid, tetrasodium salt]
anticomplementary effect / complement inhibition [1]: anticomplementary effect

NC[C@H]1CC[C@H](C(=O)O)CC1 [tranexamic acid]
success in the treatment of hereditary angioneurotic edema [8]: used with success in the treatment of hereditary angioneurotic edema

NCCCCCC(=O)O [epsilon-aminocaproic acid]
success in the treatment of hereditary angioneurotic edema [8]: used with success in the treatment of hereditary angioneurotic edema

O=C(Nc1ccc(C(=O)Nc2cc(C(=O)Nc3cc(S(=O)(=O)O)cc4cc(S(=O)(=O)O)cc(S(=O)(=O)O)c34)cc(C(=O)Nc3cc(S(=O)(=O)O)cc4cc(S(=O)(=O)O)cc(S(=O)(=O)O)c34)c2)c(S(=O)(=O)O)c1)Nc1ccc(C(=O)Nc2cc(C(=O)Nc3cc(S(=O)(=O)O)cc4cc(S(=O)(=O)O)cc(S(=O)(=O)O)c34)cc(C(=O)Nc3cc(S(=O)(=O)O)cc4cc(S(=O)(=O)O)cc(S(=O)(=O)O)c34)c2)c(S(=O)(=O)O)c1 [8,8',8",8'"Ureylenebis[(2-sulfo-4,1-phenylene)carbonylimino-s-phenenylbis(carbonylimino)]tetra-1,3,6-naphthalenetrisulfonic acid tetradecyl sodium salt]
Cl 026 Wells [2, 16]: +8 Wells | C-Late 035 Wells [3, 16]: +5 Wells | Shunt Inhibition 036 Wells [4, 16]: +5 Wells | In Vivo Activity (Guinea Pig) % Inhibition ([5]; Table I, intravenous, 200 mg/kg, time 2 minutes): -97% | In Vivo Activity (Guinea Pig) % Inhibition ([5]; Table I, intravenous, 200 mg/kg, time 30 minutes): -96% | In Vivo Activity (Guinea Pig) % Inhibition ([5]; Table I, intravenous, 200 mg/kg, time printed 20 minutes): -95%
